From patent US10166216B2 (Rigel Pharmaceuticals, Inc., priority 2006, dated 2019)

Target: Axl (Homo sapiens (Human), UniProt P30530)
Experiment: Phospho-Akt in-cell Western assay (Axl-antibody cross-linking stimulation)
Assay type: cell-based
Details: inhibition of Axl activity, phospho-Akt in-cell Western assay
In short: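 HeLa cells on poly-L-lysine, starved 24 hrs with Axl/Fc, pre-treated with compound 1 hr at 37° C., then stimulated 5 min with Axl primary/secondary antibody cluster. Fixed cells probed for phospho-Akt by chemiluminescent in-cell Western; signal normalized to crystal violet cell number.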

Chain of Axl (P30530 26-894): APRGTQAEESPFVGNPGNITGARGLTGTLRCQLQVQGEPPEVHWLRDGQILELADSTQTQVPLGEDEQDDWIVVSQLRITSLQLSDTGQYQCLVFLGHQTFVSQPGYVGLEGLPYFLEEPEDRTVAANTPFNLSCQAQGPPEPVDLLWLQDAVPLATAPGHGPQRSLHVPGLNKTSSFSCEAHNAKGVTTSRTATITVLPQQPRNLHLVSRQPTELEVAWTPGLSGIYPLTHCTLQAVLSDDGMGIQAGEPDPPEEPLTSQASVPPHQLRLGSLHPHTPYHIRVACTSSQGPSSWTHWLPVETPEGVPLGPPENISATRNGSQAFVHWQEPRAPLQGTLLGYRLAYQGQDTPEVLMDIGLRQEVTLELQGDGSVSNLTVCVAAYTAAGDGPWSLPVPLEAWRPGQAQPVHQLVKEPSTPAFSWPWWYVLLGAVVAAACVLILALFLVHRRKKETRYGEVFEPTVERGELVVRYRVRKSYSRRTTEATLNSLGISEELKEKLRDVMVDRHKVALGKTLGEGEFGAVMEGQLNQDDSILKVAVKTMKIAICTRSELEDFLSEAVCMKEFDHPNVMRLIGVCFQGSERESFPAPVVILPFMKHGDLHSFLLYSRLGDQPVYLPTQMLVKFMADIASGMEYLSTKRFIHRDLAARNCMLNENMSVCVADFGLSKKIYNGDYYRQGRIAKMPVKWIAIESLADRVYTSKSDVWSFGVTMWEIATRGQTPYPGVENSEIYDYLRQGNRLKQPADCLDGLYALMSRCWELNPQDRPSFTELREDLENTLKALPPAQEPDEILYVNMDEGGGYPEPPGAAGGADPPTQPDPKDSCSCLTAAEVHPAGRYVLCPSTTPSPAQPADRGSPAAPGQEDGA

Compound	IC50 [nM]
Cc1csc2c(-n3nc(Nc4ccc(N5CCN([C@H]6C[C@@H]7CC[C@H]6C7)CC5)cc4)nc3N)ncnc12 [Compound 188, 1-(7-methylthieno[3,2-d]pyrimidin-4-yl)-N^3-(4-(4-((1S,2S,4R)-bicyclo[2.2.1]heptan-2-yl)-piperazin-1-yl)phenyl)-1H-1,2,4-triazole-3,5-diamine]	< 1000
Nc1nc(Nc2ccc(N3CCN([C@H]4C[C@@H]5CC[C@H]4C5)CC3)cc2)nn1-c1ncnc2ccsc12 [Compound 189, 1-(thieno[3,2-d]pyrimidin-4-yl)-N^3-(4-(4-((1S,2S,4R)-bicyclo[2.2.1]heptan-2-yl)-piperazin-1-yl)phenyl)-1H-1,2,4-triazole-3,5-diamine]	< 1000
Nc1nc(Nc2ccc(N3CCN([C@H]4C[C@@H]5CC[C@H]4C5)CC3)cc2)nn1-c1ncnc2sccc12 [Compound 190, 1-(thieno[2,3-d]pyrimidin-4-yl)-N^3-(4-(4-((1S,2S,4R)-bicyclo[2.2.1]heptan-2-yl)-piperazin-1-yl)phenyl)-1H-1,2,4-triazole-3,5-diamine]	< 1000
Cc1csc2ncnc(-n3nc(Nc4ccc(N5CCN([C@H]6C[C@@H]7CC[C@H]6C7)CC5)cc4)nc3N)c12 [Compound 191, 1-(5-methylthieno[2,3-d]pyrimidin-4-yl)-N^3-(4-(4-((1S,2S,4R)-bicyclo[2.2.1]heptan-2-yl)-piperazin-1-yl)phenyl)-1H-1,2,4-triazole-3,5-diamine]	1000 to 10000
Nc1nc(Nc2ccc(N3CCN(C4CCCC4)CC3)c(F)c2)nn1-c1nc2ccccc2c2ccccc12 [Compound 192, 1-(phenanthridin-6-yl)-N^3-(3-fluoro-4-(4-cyclopentylpiperazin-1-yl)phenyl)-1H-1,2,4-triazole-3,5-diamine]	< 1000
Cc1csc2c(-n3nc(Nc4ccc(N5CCN(C6CC7CCC6C7)CC5)c(F)c4)nc3N)ncnc12 (stereo not drawn) [Compound 194]	< 1000
Nc1nc(Nc2ccc(N3CCN(C4CC5CCC4C5)CC3)c(F)c2)nn1-c1ncnc2ccsc12 (stereo not drawn) [Compound 195, 1-(thieno[3,2-d]pyrimdin-4-yl)-N^3-(3-fluoro-4-(4-(bicyclo[2.2.1]heptan-2-yl)-piperazin-1-yl)phenyl)-1H-1,2,4-triazole-3,5-diamine]	< 1000
Nc1nc(Nc2ccc(N3CCN(C4CC5CCC4C5)CC3)c(F)c2)nn1-c1ncnc2sccc12 (stereo not drawn) [Compound 196, 1-(thieno[2,3-d]pyrimidin-4-yl)-N^3-(3-fluoro-4-(4-(bicyclo[2.2.1]heptan-2-yl)-piperazin-1-yl)phenyl)-1H-1,2,4-triazole-3,5-diamine]	< 1000
Nc1nc(Nc2ccc(N3CCN(C4CC5CCC4C5)CC3)c(F)c2)nn1-c1ncnc2ccc(F)cc12 (stereo not drawn) [Compound 197, 1-(6-fluoroquinazolin-4-yl)-N^3-(3-fluoro-4-(4-(bicyclo[2.2.1]heptan-2-yl)-piperazin-1-yl)phenyl)-1H-1,2,4-triazole-3,5-diamine]	< 1000
Cc1nnc(-n2nc(Nc3ccc(N4CCN(C5CC6CCC5C6)CC4)cc3)nc2N)c2sccc12 (stereo not drawn) [Compound 198, 1-(4-methylthieno[3,2-d]pyridazin-7-yl)-N^3-(4-(4-(bicyclo[2.2.1]heptan-2-yl)-piperazin-1-yl)phenyl)-1H-1,2,4-triazole-3,5-diamine]	< 1000
Cc1cc(Nc2nc(N)n(-c3ncnc4c(C)csc34)n2)ccc1N1CCN(C2CC3CCC2C3)CC1 (stereo not drawn) [Compound 199, 1-(7-methylthieno[3,2-d]pyrimidin-4-yl)-N^3-(3-methyl-4-(4-(bicyclo[2.2.1]heptan-2-yl)-piperazin-1-yl)phenyl)-1H-1,2,4-triazole-3,5-diamine]	< 1000
Cc1cc(N2CCN(C3CC4CCC3C4)CC2)ccc1Nc1nc(N)n(-c2nc(Cl)nc3c(C)csc23)n1 (stereo not drawn) [Compound 200, 1-(7-methyl-2-chlorothieno[3,2-d]pyrimidin-4-yl)-N^3-(2-methyl-4-(4-(bicyclo[2.2.1]heptan-2-yl)-piperazin-1-yl)phenyl)-1H-1,2,4-triazole-3,5-diamine]	1000 to 10000
